Reference: ChEMBL document CHEMBL5500393, “Discovery and Optimization of Novel SaFabI Inhibitors as Specific Therapeutic Agents for MRSA Infection” (J Med Chem, 2024)
In brackets after ≈: the same amount, converted by molar mass. Activity calls are given as the source filed them. The calls are words filed in the database; no cut-off is given here.

Assays:
[1] = Clearance in female Sprague-Dawley rat at 20 mg/kg, po measured upto 24 hrs by LC-MS analysis; format: ADME, organism-based; settings: in vivo
[2] = Cytotoxicity against HEK293 cells assessed as survival rate at 800 uM measured after 48 hrs by CCK-8 method relative to control; format: toxicity, cell-based; settings: human, read-out: Survival
[3] = tested on: Staphylococcus aureus; experiment: Bactericidal activity against […] Staphylococcus aureus ATCC33591 measured upto 24 hr by time-kill assay; format: functional, organism-based
[4] = tested on: Staphylococcus aureus; experiment: Antimicrobial activity against Staphylococcus aureus RN4220 harbouring pCM-sfgfp::fabi (promoter fabi) measured after 24 hrs by CLSI protocol based microdilution method; format: functional
[5] = Acute toxicity in female BALB/c mouse assessed as effect on spleen at 800 mg/kg, po measured after 14 days by H and E staining based analysis; format: organism-based; settings: in vivo, 336 h, time 14 day
[6] = Inhibition of N-terminal his 6 tagged Acinetobacter baumannii Fabi (1 to 804 residues) expressed in Escherichia coli BL21 incubated for 30 mins in presence of NADH by fluorescence based microplate reader analysis
[7] = Acute toxicity in female BALB/c mouse assessed as abnormal behaviour at 800 mg/kg, po measured after 14 days; format: organism-based; settings: in vivo, 336 h, time 14 day
[8] = Drug concentration in BALB/c mouse plasma at 400 mg/kg, po measured after 1 hr by LC-MS analysis; format: ADME, organism-based
[9] = Half life in female Sprague-Dawley rat at 5 mg/kg, iv measured upto 24 hrs by LC-MS analysis; format: ADME, organism-based; settings: in vivo
[10] = molecular target: T1, Enoyl-[acyl-carrier-protein] reductase [NADPH] FabI (Staphylococcus aureus) (UniProt Q6GI75); experiment: Binding affinity to N-terminal his 6 tagged Staphylococcus aureus Fabi (1 to […] residues) expressed in Escherichia coli BL21 assessed as increase in thermal stability at 10 ug/ml measured after 1 hr by […] assay; settings: dose 10.0 µg/ml
T1 sequence (whole entry): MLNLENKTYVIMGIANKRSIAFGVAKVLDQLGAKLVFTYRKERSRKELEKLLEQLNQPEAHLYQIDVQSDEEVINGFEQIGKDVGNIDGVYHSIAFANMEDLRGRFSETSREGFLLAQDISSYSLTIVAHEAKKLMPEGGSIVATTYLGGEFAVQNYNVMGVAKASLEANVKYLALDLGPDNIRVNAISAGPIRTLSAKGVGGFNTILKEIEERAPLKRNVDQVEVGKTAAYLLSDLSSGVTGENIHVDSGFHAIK

[11] = Acute toxicity in female BALB/c mouse assessed as effect on liver at 800 mg/kg, po measured after 14 days by H and E staining based analysis; format: organism-based; settings: in vivo, 336 h, time 14 day
[12] = tested on: Cell membrane; experiment: Induction of cell membrane permeability in methicillin-resistant Staphylococcus aureus ATCC33591 assessed as fold increase in fluorescence intensity at 0.5 times MIC measured after 30 mins by Annexin V-FITC staining based analysis; format: cell membranes
[13] = Acute toxicity in female BALB/c mouse assessed as effect on ALT level in serum at 800 mg/kg, po measured after 14 days; format: organism-based; settings: in vivo, 336 h, time 14 day
[14] = tested on: Cell membrane; experiment: Induction of cell membrane permeability in methicillin-resistant Staphylococcus aureus ATCC33591 assessed as increase in fluorescence measured after 30 mins by 7-AAD staining based analysis; format: cell membranes
[15] = tested on: Cell membrane; experiment: Induction of cell membrane damage in methicillin-resistant Staphylococcus aureus ATCC33591 assessed as increase in red fluorescence at 1 times MIC measured after 30 mins by […] analysis; format: cell membranes
[16] = Metabolic stability in human liver microsomes assessed as half life at 1 uM measured upto 120 mins in presence of NADPH by LC-MS analysis; format: ADME, Microsome
[17] = tested on: Staphylococcus aureus; experiment: Antimicrobial activity against methicillin-susceptible Staphylococcus aureus ATCC25923 measured after 24 hrs by CLSI protocol based microdilution method; format: functional
[18] = tested on: Cell membrane; experiment: Induction of cell membrane permeability in methicillin-resistant Staphylococcus aureus ATCC33591 assessed as fold increase in fluorescence intensity at 1 times MIC measured after 30 mins by 7-AAD staining based analysis; format: cell membranes
[19] = molecular target: T2, Enoyl-[acyl-carrier-protein] reductase [NADPH] FabI (Staphylococcus aureus, UniProt Q6GI75); experiment: Inhibition of N-terminal his 6 tagged Staphylococcus aureus Fabi (1 to […] residues) expressed in Escherichia coli BL21 incubated for 30 mins in presence of NADPH by fluorescence based microplate reader analysis
T2 sequence (Q6GI75 whole entry): T1 sequence (whole entry)

[20] = tested on: Staphylococcus aureus; experiment: Antimicrobial activity against methicillin-susceptible Staphylococcus aureus ATCC29213 measured after 24 hrs by CLSI protocol based microdilution method; format: functional
[21] = tested on: HepG2; experiment: Cytotoxicity against human HepG2 cells assessed as survival rate at 400 uM measured after 48 hrs by CCK-8 method relative to control; format: functional; settings: read-out: Survival
[22] = Acute toxicity in female BALB/c mouse assessed as effect on TP level in serum at 800 mg/kg, po measured after 14 days; format: organism-based; settings: in vivo, 336 h, time 14 day
[23] = tested on: Cell membrane; experiment: Induction of cell membrane damage in methicillin-resistant Staphylococcus aureus ATCC33591 assessed as broken cell surface at 1 times MIC measured after 30 mins by TEM analysis; format: cell membranes
[24] = Acute toxicity in female BALB/c mouse assessed as effect on heart at 800 mg/kg, po measured after 14 days by H and E staining based analysis; format: organism-based; settings: in vivo, 336 h, time 14 day
[25] = tested on: Enterococcus faecium; experiment: Antimicrobial activity against Enterococcus faecium ATCC19434 measured after 24 hrs by CLSI protocol based microdilution method; format: functional
[26] = Selectivity index, ratio of HC50 for sheep erythrocytes to MIC for Staphylococcus aureus; format: toxicity; settings: read-out: Selectivity Index
[27] = Hemolytic activity in sheep erythrocytes assessed as hemolysis at 256 ug/ml incubated for 1 hr by microplate reader based analysis relative to control; format: toxicity, cell-based, Ovis aries, Erythrocyte; settings: at 256 µg/mL, read-out: Activity
[28] = Acute toxicity in female BALB/c mouse assessed as effect on ALB level in serum at 800 mg/kg, po measured after 14 days; format: organism-based; settings: in vivo, 336 h, time 14 day
[29] = Aqueous solubility of the compound measured after 24 hrs by HPLC analysis; format: physicochemical
[30] = Clearance in female Sprague-Dawley rat at 5 mg/kg, iv measured upto 24 hrs by LC-MS analysis; format: ADME, organism-based; settings: in vivo
[31] = tested on: Escherichia coli; experiment: Antimicrobial activity against Escherichia coli ATCC25922 measured after 24 hrs by CLSI protocol based microdilution method; format: functional
[32] = molecular target: T1, Enoyl-[acyl-carrier-protein] reductase [NADPH] FabI (Staphylococcus aureus); experiment: Inhibition of N-terminal his 6 tagged Staphylococcus aureus Fabi (1 to […] residues) expressed in Escherichia coli BL21 at 1 uM incubated for 30 mins in presence of NADPH by fluorescence based microplate reader analysis relative to control
[33] = tested on: Staphylococcus aureus; experiment: Antimicrobial activity against Staphylococcus aureus RN4220 harbouring pCM-sfgfp measured after 24 hrs by CLSI protocol based microdilution method; format: functional
[34] = Tmax in female Sprague-Dawley rat at 20 mg/kg, po measured upto 24 hrs by LC-MS analysis; format: ADME, organism-based; settings: in vivo
[35] = tested on: Candida albicans; experiment: Antimicrobial activity against Candida albicans SC5314 measured after 48 hrs by CLSI protocol based microdilution method; format: functional
[36] = Inhibition of N-terminal his 6 tagged Escherichia coli Fabi (1 to 789 residues) expressed in Escherichia coli BL21 incubated for 30 mins in presence of NADH by fluorescence based microplate reader analysis

For `Cc1c(Br)cccc1N1CC(c2nc3ccccc3n2C)CC1=O` (configuration not stated), the CL/F [1] was 26.7 mL/min/kg, the viability at 48 h, 800 µM [2] was over 75% and the Activity [3] was “Dose-Dependent Effect”. The MIC [4] was 32 µg/mL (≈ 83.3 µM), the Activity [5] was “Non-Toxic” and the IC50 [6] was 266 nM. For the same compound, the Activity [7] was “Non-Toxic”, the concentration at 1 h [8] was 24000 ng/mL and the t1/2 [9] was 1.1 h. The Activity [10] was “Active”, the Activity [11] was “Non-Toxic” and the fold change (FC) [12] was 2.1. The Activity [13] was “Non-Toxic”, the Activity [14] was “Active” and the Activity [15] was “Active”. It also gave a half-life at 1 µM [16] of 1.06 h, an MIC [17] of 1 µg/mL (≈ 2.6 µM) and a fold change (FC) [18] of 1.9. For the same compound, the IC50 [19] was 174 nM, the MIC [20] was 1 µg/mL (≈ 2.6 µM) and the viability at 400 µM [21] was over 70%. The Activity [22] was “Non-Toxic”, the Activity [23] was “Active” and the Activity [24] was “Non-Toxic”. It also gave an MIC [25] of over 32 µg/mL, a selectivity ratio [26] of over 128 and a hemolysis at 1 h, 256 ug/ml [27] of 9.9%. For the same compound, the Activity [28] was “Non-Toxic”, the solubility at 24 h [29] was 388 µg/mL (≈ 1010 µM) and the clearance [30] was 26.7 mL/min/kg. It also gave an MIC [31] of over 32 µg/mL, an inhibition [32] of 88.9% and an MIC [33] of 2 µg/mL (≈ 5.2 µM). For the same compound, the Tmax [34] was 1 h, the MIC [35] was over 32 µg/mL and the IC50 [36] was 35.9 nM.
For `COc1c(Br)cccc1N1CC(c2nc3ccccc3n2C)CC1=O` (configuration not stated), the CL/F [1] was 86.7 mL/min/kg, the viability at 48 h, 800 µM [2] was over 65% and the Activity [3] was “Dose-Dependent Effect”. For the same compound, the MIC [4] was 32 µg/mL (≈ 79.9 µM), the Activity [5] was “Non-Toxic” and the IC50 [6] was 266 nM. For the same compound, the Activity [7] was “Non-Toxic”, the concentration at 1 h [8] was 18100 ng/mL and the t1/2 [9] was 1.1 h. The Activity [10] was “Active”, the Activity [11] was “Non-Toxic” and the fold change (FC) [12] was 1.9. The Activity [13] was “Non-Toxic”, the Activity [14] was “Active” and the Activity [15] was “Active”. The half-life at 1 µM [16] was 0.638 h, the MIC [17] was 2 µg/mL (≈ 5 µM) and the fold change (FC) [18] was 1.8. It also gave an IC50 [19] of 199 nM, an MIC [20] of 1 µg/mL (≈ 2.5 µM) and a viability at 400 µM [21] of over 70%. For the same compound, the Activity [22] was “Non-Toxic”, the Activity [23] was “Active” and the Activity [24] was “Non-Toxic”. For the same compound, the MIC [25] was over 32 µg/mL, the selectivity ratio [26] was over 128 and the hemolysis at 1 h, 256 ug/ml [27] was 8.1%. The Activity [28] was “Non-Toxic”, the solubility at 24 h [29] was 467 µg/mL (≈ 1170 µM) and the clearance [30] was 36.7 mL/min/kg. It also gave an MIC [31] of over 32 µg/mL, an inhibition [32] of 89.6% and an MIC [33] of 2 µg/mL (≈ 5 µM). The Tmax [34] was 0.5 h, the MIC [35] was over 32 µg/mL and the IC50 [36] was 35.9 nM.
